Measured values from patent US9644010B2, “LY6K epitope peptides for TH1 cells and vaccines containing the same” (ONCOTHERAPY SCIENCE, INC., priority 2012, dated 2017).

How the values were obtained:
[1] = system: LY6K-specific T cells in PBMCs; assay: Assessment of LY6K-specific CD4+ T cell responses in head and neck cancer patients, IFN-gamma ELISPOT after 1 week stimulation of PBMCs with LPs; format: cell-based, human
Protocol: Two phase I clinical trials of peptide-based cancer immunotherapy were reviewed and approved by the Institutional Review Board of Kumamoto University, Kumamoto, Japan (approval no. 841 and 1124). […] Tumor stage and grading were determined according to the International Union against cancer (UICC) clarification. The patients suffered from inoperable advanced head and neck cancer with recurrent or metastatic tumors who had been resistant to standard therapy were enrolled in one trial (841). The patients suffered from operable advanced head and neck cancer were enrolled in another trial (1124). These patients in this trial (1124) had been treated with postoperative peptide-vaccine immunotherapy. The patients suffered from inoperable advanced HNMT with recurrent or metastatic tumors and were resistant to standard therapy; they were enrolled in the trial under University Hospital Medical Information Network Clinical Trials Registry (UMIN-CTR) number 000008379 (CTR-8379). HNMT patients with radical resection were enrolled in the trial under UMIN-CTR number 000008380 (CTR-8380). In the latter trial, HNMT patients were treated with postoperative peptide vaccine combined with S-1, ifosfamide, or doxorubicin. […]
The PBMCs from cancer patients or healthy donors were cultured with 10 micro-g/ml of mixture of LY6K-derived LPs in a 24-well plate (2×10^6/well) in AIM-V supplemented with 5% human decomplemented plasma and IL-7 and IL-2 were added at day 0 and day 2. After 1 week of cell culture, the PBMCs were collected and the presence of LY6K-specific T cells was measured by IFN-gamma ELISPOT assays. […] The number of specific T cells expressed as spot-forming cells/10^5 cells was calculated after subtracting negative control values (background). […] Responses were evaluated to be positive when IFN-gamma were more than 10 and more than 2-fold the background. […] And responses were evaluated to be positive when IFN-gamma were more than 15 and more than 2-fold the background. […]

[2] = system: HLA-A24 Tgm; assay: In vivo cross-priming assay, ex vivo IFN-gamma ELISPOT; design: species or system mice; details: 100 micro-g/mouse in IFA
Text: HLA-A24 Tgm were kindly provided by Dr. F. A. Lemonnier (Jung K O, et al. J Virol; 86: 7616-24). For peptide vaccination, the mice were intradermally injected at the base of the tail with LY6K (172-191) LP (100 micro-g/mouse) solution emulsified in IFA at 7-day intervals. Seven days after the second vaccinations with LY6K (172-191) LP, mice were sacrificed to obtain inguinal lymphocytes and CD8^+ T cells were positively isolated with magnetic microbeads. The number of IFN-gamma producing CD8^+ T cells (3×10^5/well) upon stimulation with LY6K-A24 (177-186) SP or HIV-A24 SP-pulsed C1R-A2402 cells (2×10^4/well) was counted by ELISPOT assay.
HLA-A24 (HHH) transgenic mice (Tgm) were kindly provided by Dr. F. A. Lemonnier (Jung K O, et al. J Virol; 86: 7616-24). Mice were intradermally injected at the base of the tail with LY6K (172-191) LP solution (100 micro-g/mouse) emulsified in incomplete Freund's adjuvant (IFA), third times at 7-day intervals. […] The number of IFN-gamma producing CD8^+ T cells (1×10^5 cells/well) in response to stimulation with LY6K-A24 (177-186) SP-pulsed BM-DCs (2×10^4 cells/well) was counted by ex vivo ELISPOT assay (Inoue M, et al. Immunol Lett 2009; 126:67-72; Harao M, et al. Int J Cancer 2008; 123:2616-25.).

KCCKIRYCNLEGPPINSSVF [LY6K (172-191)]
number of LP-specific spots in vaccinated patients compared with HNMT patients before vaccination ([1]; FIG. 8D, Mann-Whitney U test): significantly larger
numbers of specific IFN-gamma spots in vaccinated patients compared with healthy donors ([1]; FIG. 8D, Mann-Whitney U test): significantly larger
frequency of LP-specific immune response in HNMT patients after vaccination compared with before vaccination ([1]; FIG. 8E, Fisher's exact probability test): significantly higher
IFN-gamma production by CD8+ T-cells of immunized mice upon stimulation with LY6K-A24 (177-186) SP-pulsed BM-DCs ([2]; HLA-A24 Tgm immunized 3 times): produced IFN-gamma
IFN-gamma production by CD8+ T cells of immunized mice upon re-stimulation with LY6K-A24 (177-186) SP-pulsed C1R-A2402 cells ([2]; HLA-A24 Tgm immunized twice, base of tail, 7-day intervals, inguinal LN): produced IFN-gamma specifically
